The target in this assay is T1, TLR7 (Homo sapiens, UniProt Q9NYK1).
T1 construct: Fresh blood was collected from normal human donors; endogenous in cells; host or cells: human PBMCs from fresh donor blood
T1 sequence (Q9NYK1 27-1049): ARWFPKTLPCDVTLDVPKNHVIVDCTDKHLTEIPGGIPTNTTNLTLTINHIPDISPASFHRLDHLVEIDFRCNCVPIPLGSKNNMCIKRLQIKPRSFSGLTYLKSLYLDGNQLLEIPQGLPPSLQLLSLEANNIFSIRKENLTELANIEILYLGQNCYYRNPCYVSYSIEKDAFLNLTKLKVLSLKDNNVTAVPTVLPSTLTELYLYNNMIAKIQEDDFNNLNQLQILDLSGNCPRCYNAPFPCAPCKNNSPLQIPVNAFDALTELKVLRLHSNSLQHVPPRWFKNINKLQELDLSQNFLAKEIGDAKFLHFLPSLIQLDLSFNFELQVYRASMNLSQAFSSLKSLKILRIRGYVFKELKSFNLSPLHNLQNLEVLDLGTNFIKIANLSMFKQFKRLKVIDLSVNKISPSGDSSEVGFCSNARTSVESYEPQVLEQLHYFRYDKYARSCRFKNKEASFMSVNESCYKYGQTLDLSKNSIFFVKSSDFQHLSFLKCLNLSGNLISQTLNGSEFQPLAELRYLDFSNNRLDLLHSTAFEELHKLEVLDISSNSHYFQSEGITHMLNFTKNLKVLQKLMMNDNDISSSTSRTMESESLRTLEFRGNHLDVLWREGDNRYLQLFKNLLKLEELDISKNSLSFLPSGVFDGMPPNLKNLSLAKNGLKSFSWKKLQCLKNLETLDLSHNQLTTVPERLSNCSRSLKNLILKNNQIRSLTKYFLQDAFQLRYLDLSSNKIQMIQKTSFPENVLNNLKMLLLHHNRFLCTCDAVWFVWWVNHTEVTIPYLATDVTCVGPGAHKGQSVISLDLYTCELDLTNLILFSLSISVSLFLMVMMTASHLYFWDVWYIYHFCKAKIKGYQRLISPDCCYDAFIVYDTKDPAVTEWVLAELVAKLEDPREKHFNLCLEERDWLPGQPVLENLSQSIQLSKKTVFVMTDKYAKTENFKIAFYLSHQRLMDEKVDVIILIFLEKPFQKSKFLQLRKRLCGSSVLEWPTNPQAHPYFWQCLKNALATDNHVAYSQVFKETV
Briefly: huPBMC TLR7 Antagonist IFNα Assay. The conditions noted are these: human PBMCs stimulated with ssRNA40 10 μg/mL (DOTAP), 14-16 hrs; IFNα2b AlphaLISA read-out. It is filed as cell-based. How it is done:
Compounds were generally serially diluted (1/3) in DMSO and plated on sterile 384 well tissue culture plates and stored until ready for use. Each ten-point dilution was typically plated in triplicate in parallel rows.
Fresh blood was collected from normal human donors underwritten informed consent in heparinized syringes on the morning of the assay. The blood was diluted in RPMI-1640 medium and the white blood cells were separated from red blood cells by centrifugation (800 g 15′ 0 acceleration, 0 brake) on a Ficoll cushion. Peripheral blood mononuclear cells (PBMCs) were separated from platelets by a series of low-speed centrifugations (1000RPM 10′) in PBS+5% HI—FBS and 1 mM EDTA. Purified PBMCs were re-suspended in assay medium (RPMI-1640 w Glutamax (Invitrogen) supplemented with 5% HI—FBS, 10 mM HEPES, 50 uM β-mercaptoethanol, and 100 mG/L penicillin/streptomycin cocktail). Viable PBMCs were counted on a hemacytometer and kept on ice until ready for plating.
A 4× concentration (4 ug/ml or 40 ug/ml for TLR8 or TLR7 assays, respectively) of the TLR7/8 agonist ssRNA40 (IDT) was complexed with 10% DOTAP (Roche) in assay medium for 30 min prior to addition to the PBMC suspension (5 million cells/ml). After addition, the final concentration of ssRNA40 in the TLR7/8 stimulated PBMC suspension was 1 μg/ml for TLR8 assay, and 10 μg/mL for the TLR7 assay. The final DOTAP concentration was 2.5%. Diluted PBMCs (5 million cells/ml) were treated with 4×TLR9 agonist ODN2216 (Invivogen). Final concentration of ODN2216 in TLR9 stimulated PBMC suspension was 0.3 μM.
Agonist stimulated PBMCs were plated on the compound treated 384 well plates at 150,000 cells/well. Un-stimulated PBMCs were plated as controls on each plate. Plating volume was 40 μL per well. DMSO concentration in each well was 0.25%.
A separate plate, without compounds, with titrations of ssRNA40 and ODN2216 was included in every assay to measure agonist response of each donor's PBMC prep. Assay plates were placed in a tissue culture incubator (37° C., 5% CO2) for 14-16 hrs. After this incubation, the plates were centrifuged and stored at −20° C. until they were assayed.
IL-6 TR-FRET Assay for TLR8 activity: • 1) Cisbio Human IL-6 kit, 20,000 tests (62TNFPEC), and GNF High-Base TC 384 well plates (cat #789163G) were used; • 2) the Anti-TIL-6 Cryptate conjugate and the Anti-IL-6 XL665 conjugate were diluted 1:20 in Reconstitution Buffer; • 3) a 1:1 mixture of 3 μl/well Anti-IL-6 Cryptate conjugate and 3 μl/well Anti-IL-6 XL665 conjugate was prepared; • 4) 6 μl/well HTRF dilution mastermix was added to 6 μl of transferred supernatant samples in proxiplates; • 5) The plates were incubated for 3 hrs at rt in the dark; and • 6) the levels of IL-6 production was measured using an Envision plate reader (665 nm (emmission)/590 nm (excitation)) with HTRF settings and ratiometric read-out: (XL665 emission/Eu Cryptate emission)×10,000. IFNα2b AlphaLISA Assay for TLR7 or TLR9 activity After thawing the assay plates, 6 μL of supernatant samples were transferred to a low-volume AlphaPlate 384SW (Perkin-Elmer). The concentration of IFNα in supernatants was measured using the IFNα2b AlphaLISA Assay (Perkin-Elmer: AL297F). 3 μL of IFNα acceptor beads/biotinylated antibody solution was added first, using laboratory automation. After an hour incubation, […] of streptavidin […] bead solution was added. The plates containing this mixture were incubated in the dark for an hour and read on an appropriate plate reader at reading parameters set by the manufacturer. (Envision, EnSpire: Perkin-Elmer).

What is called IC50 is the concentration needed to halve the response being measured.

For `Cc1cc(N2CCc3c(c(C)nn3CC34CCC(N)(CC3)CC4)C2)c2ccncc2n1` [Compound No. 3, 4-((3-methyl-5-(2-methyl-1,7-naphthyridin-4-yl)-4,5,6,7-tetrahydro-1H-pyrazolo[4,3-c]pyridin-1-yl)methyl)bicyclo[2.2.2]octan-1-amine], the IC50 was determined as 54 nM.
To `Cc1cc(N2CCc3c(c(C)nn3CC34CCC(NC5COC5)(CC3)CC4)C2)c2cnn(C)c2n1` [Compound No. 6, N-(4-((5-(1,6-dimethyl-1H-pyrazolo[3,4-b]pyridin-4-yl)-3-methyl-4,5,6,7-tetrahydro-1H-pyrazolo[4,3-c]pyridin-1-yl)methyl)bicyclo[2.2.2]octan-1-yl)oxetan-3-amine] belongs 19 nM; to `Cc1cc(N2CCc3c(c(C)nn3CC34CCC(NC(=O)[C@@H]5COCCN5)(CC3)CC4)C2)c2cnn(C)c2n1` [Compound No. 8, (S)—N-(4-((5-(1,6-dimethyl-1H-pyrazolo[3,4-b]pyridin-4-yl)-3-methyl-4,5,6,7-tetrahydro-1H-pyrazolo[4,3-c]pyridin-1-yl)methyl)bicyclo[2.2.2]octan-1-yl)morpholine-3-carboxamide], 4 nM; to `Cc1cc(N2CCc3c(c(C)nn3CC34CCC(NC(=O)[C@H]5COCCN5)(CC3)CC4)C2)c2cnn(C)c2n1` [Compound No. 9, (R)—N-(4-((5-(1,6-dimethyl-1H-pyrazolo[3,4-b]pyridin-4-yl)-3-methyl-4,5,6,7-tetrahydro-1H-pyrazolo[4,3-c]pyridin-1-yl)methyl)bicyclo[2.2.2]octan-1-yl)morpholine-3-carboxamide], 15 nM.
To `Cc1nc(N2CCc3c(c(C)nn3CC34CCC(N5CC6(COC6)C5)(CC3)CC4)C2)c2c(n1)c(C)nn2C` [Compound No. 10, 6-(4-((3-methyl-5-(1,3,5-trimethyl-1H-pyrazolo[4,3-d]pyrimidin-7-yl)-4,5,6,7-tetrahydro-1H-pyrazolo[4,3-c]pyridin-1-yl)methyl)bicyclo[2.2.2]octan-1-yl)-2-oxa-6-azaspiro[3.3]heptane] belongs 56 nM; to `Cc1nc(N2CCc3c(c(C)nn3CC34CCC(N)(CC3)CC4)C2)c2c(n1)c(C)nn2C` [Compound No. 26, 4-((3-methyl-5-(1,3,5-trimethyl-1H-pyrazolo[4,3-d]pyrimidin-7-yl)-4,5,6,7-tetrahydro-1H-pyrazolo[4,3-c]pyridin-1-yl)methyl)bicyclo[2.2.2]octan-1-amine], 644 nM; to `Cc1cc(N2CCc3c(c(C)nn3CC34CCC(N(C)C)(CC3)CC4)C2)c2cnn(C)c2n1` [Compound No. 43, 4-((5-(1,6-dimethyl-1H-pyrazolo[3,4-b]pyridin-4-yl)-3-methyl-4,5,6,7-tetrahydro-1H-pyrazolo[4,3-c]pyridin-1-yl)methyl)-N,N-dimethylbicyclo[2.2.2]octan-1-amine], 16 nM.
To `Cc1cc(N2CCc3c(c(C)nn3CC34CCC(N5CCN(C)C(=O)C5)(CC3)CC4)C2)c2cnn(C)c2n1` [Compound No. 104, 4-(4-((5-(1,6-dimethyl-1H-pyrazolo[3,4-b]pyridin-4-yl)-3-methyl-4,5,6,7-tetrahydro-1H-pyrazolo[4,3-c]pyridin-1-yl)methyl)bicyclo[2.2.2]octan-1-yl)-1-methylpiperazin-2-one] belongs 61 nM; to `Cc1cc(N2CCc3c(c(C)nn3CC34CCC(N5CCN(C)CC5=O)(CC3)CC4)C2)c2cnn(C)c2n1` [Compound No. 108, 1-(4-((5-(1,6-dimethyl-1H-pyrazolo[3,4-b]pyridin-4-yl)-3-methyl-4,5,6,7-tetrahydro-1H-pyrazolo[4,3-c]pyridin-1-yl)methyl)bicyclo[2.2.2]octan-1-yl)-4-methylpiperazin-2-one], 21 nM.
For the compound `Cc1cc(N2CCc3c(c(C)nn3CC34CCC(n5ccnc5)(CC3)CC4)C2)c2cnn(C)c2n1` [Compound No. 119, 1-((4-(1H-imidazol-1-yl)bicyclo[2.2.2]octan-1-yl)methyl)-5-(1,6-dimethyl-1H-pyrazolo[3,4-b]pyridin-4-yl)-3-methyl-4,5,6,7-tetrahydro-1H-pyrazolo[4,3-c]pyridine], the IC50 is 6 nM.
To `Cc1cc(N2CCc3c(c(C)nn3CC34CCC(NC(=O)CN5CC(F)C5)(CC3)CC4)C2)c2cnn(C)c2n1` [Compound No. 133, N-(4-((5-(1,6-dimethyl-1H-pyrazolo[3,4-b]pyridin-4-yl)-3-methyl-4,5,6,7-tetrahydro-1H-pyrazolo[4,3-c]pyridin-1-yl)methyl)bicyclo[2.2.2]octan-1-yl)-2-(3-fluoroazetidin-1-yl)acetamide] belongs 12 nM.
As for `Cc1cc(N2CCc3c(c(C)nn3CC34CCC(NC(=O)CO)(CC3)CC4)C2)c2cnn(C)c2n1` [Compound No. 135, N-(4-((5-(1,6-dimethyl-1H-pyrazolo[3,4-b]pyridin-4-yl)-3-methyl-4,5,6,7-tetrahydro-1H-pyrazolo[4,3-c]pyridin-1-yl)methyl)bicyclo[2.2.2]octan-1-yl)-2-hydroxyacetamide], the figure is 10 nM.
As for `Cc1cc(N2CCc3c(c(C)nn3CC34CCC(NC(=O)CN5CC(O)C5)(CC3)CC4)C2)c2cnn(C)c2n1` [Compound No. 136, N-(4-((5-(1,6-dimethyl-1H-pyrazolo[3,4-b]pyridin-4-yl)-3-methyl-4,5,6,7-tetrahydro-1H-pyrazolo[4,3-c]pyridin-1-yl)methyl)bicyclo[2.2.2]octan-1-yl)-2-(3-hydroxyazetidin-1-yl)acetamide], the IC50 stood at 6 nM.
To `[2H]C([2H])([2H])n1ncc2c(N3CCc4c(c(C)nn4CC45CCC(N)(CC4)CC5)C3)cc(C)nc21` [Compound No. 140, 4-((3-methyl-5-(6-methyl-1-(methyl-d3)-1H-pyrazolo[3,4-b]pyridin-4-yl)-4,5,6,7-tetrahydro-1H-pyrazolo[4,3-c]pyridin-1-yl)methyl)bicyclo[2.2.2]octan-1-amine] belongs 27 nM.
